Some results are limits rather than exact numbers.

Test [1] relates to second-stage juveniles (J2) of M. incognita. Put plainly: Bioassay against second-stage juveniles (J2) of M. incognita, 48 hours' exposure (paralysis). It counts as in vivo. As to conditions: for nematotoxic effect on J2 / J2 paralyzed / % paralyzed nematodes / % of paralyzed nematodes: 48 hours' exposure; for % of paralyzed nematodes: 0.25 g/L (of each compound). The procedure: (§1) FIG. 9—(A) Bioassay showing the effect of the commercial compounds on second-stage juveniles of M. incognita after 48 hours' exposure. 1—Control dH20, 2—DECE, 3—Glycose 10%, 4—Glycose 20%, 5—D-Pinitol (80 ug), 6—D-Pinitol (150 ug), 7—L-canavanina (80 ug), 8—L-canavanina (150 ug), 9—palmitic acid (80 ug), 10—palmitic acid (150 ug), 11—citric acid (80 ug), 12—citric acid (150 ug), 13—malic acid (80 ug), 14—malic acid (150 ug), 15—cis-aconitic acid (80 ug), 16—cis-anonitic acid (150 ug), 17—trans-anonitic acid (80 ug), 18—trans-aconitic acid (150 ug), 19—50 mM Tris/HCl pH 8, 20—50 mM acetic acid pH 5, 21—L-phenylamine (80 ug), 22—L-phenylamine (150 ug), 23—L-methionine (80 ug), 24—L-methionine (150 ug), 25—L-tryptophan (80 ug), 26—L-tryptophan (150 ug), 27—S-carboxymethylcistein (80 ug), 28—S-carboxymethylcisteine (150 ug), 29—Zantotoxine (80 ug), 30—Zantotoxine (150 ug), and 31—Glucose 20%+L-canavanine (15) ug). B—Evaluation of the effect of the different commercial compounds after the recovery assay using distilled water.
(§2) FIG. 10—(A) Bioassay showing the effect of the commercial compounds and their compositions on second-stage juveniles of M. incognita (J1) after 48 hours' exposure. C+ positive control (extract); C−: negative control (water); 2: palmitic acid; 3: S-carboxymethylcisteine; 4: trans-aconitic acid; 5: glucose. […] (B)—Evaluation of the effect of the different commercial compounds and their compositions after the recovery assay using distilled water. C+ positive control (extract); 2: palmitic acid; 3: S-carboxymethylcisteine; 4: trans-aconitic acid; 5: glucose.
(§3) In this context, compounds produced commercially with biological functions identified after research in the literature and present in the nematotoxic fractions of C. ensiformis were tested in bioassay against M. incognita juveniles (FIG. 9A).

A further test deals with J2 of M. incognita. Put plainly: Recovery assay using distilled water (nematicidal vs nematostatic effect). It counts as in vivo. The procedure: as §1, §2, §3

`CO[C@H]1[C@H](O)[C@@H](O)[C@@H](O)[C@H](O)[C@@H]1O` [D-pinitol]: the “nematotoxic effect on J2” value in test [1] (80 μg/300 μL) and in test [1] (150 μg/300 μL) was “did not exhibit any toxic effect” each time.

Take `N=C(N)NOCC[C@H](N)C(=O)O` [L-canavanine]: in test [1] (80 μg/300 μL), the “nematotoxic effect on J2” value is recorded as “did not exhibit any nematotoxic activity”. In addition, the “juveniles remained paralyzed after the recovery assay” value with J2 of M. incognita (105 μg/300 μL) is 25%.

In the case of `N[C@@H](Cc1ccccc1)C(=O)O` [L-phenylamnine], the “nematotoxic effect on J2” value in test [1] (80 μg/300 μL) and in test [1] (150 μg/300 μL) was “not capable of affecting the J2” throughout.

`N[C@@H](Cc1c[nH]c2ccccc12)C(=O)O` [L-triptofane]: the “nematotoxic effect on J2” value in test [1] (80 μg/300 μL) and in test [1] (150 μg/300 μL) was “not capable of affecting the J2” throughout.

On to `COc1c2occc2cc2ccc(=O)oc12` [Xantotoxin], for which the J2 paralyzed in test [1] (80 μg/300 μL) and in test [1] (150 μg/300 μL) was 87% throughout. Also, the “kind of effect confirmed by recovery assay” value (shortened to “kind of effect confirmed”) with J2 of M. incognita (80 μg/300 μL) and in the test with J2 of M. incognita (150 μg/300 μL) was “nematicidal effect” in each case.

`O=C(O)/C=C(/CC(=O)O)C(=O)O` [cis-aconitic, cis-aconitic acid]: the “nematicidal activity after the recovery assay” value in the test with J2 of M. incognita (150 μg/300 μL) worked out at 40%.

For `O=C[C@H](O)[C@@H](O)[C@H](O)[C@H](O)CO` [glucose], the “% paralyzed nematodes” value in test [1] (0.125 g/L (of each compound)) stood at 0%. Besides, the “paralyzing of nematodes” value in test [1] (solution 10% (W/V), 48 hours) was “paralyzing most of the nematodes”. In addition, the “kind of activity confirmed by recovery assay” value in the test on J2 of M. incognita (solution 10% (W/V)) is reported as “nematostatic activity”.

As to `CCCCCCCCCCCCCCCC(=O)O` [palmitic acid], the “% paralyzed nematodes” value in test [1] (0.125 g/L (of each compound)) is reported as less than 7.66%; in test [1] (0.17 g/L (of each compound)), 7.66%. Moreover, in test [1], the “% of paralyzed nematodes” value was found to be 33.86%. The “kind of effect confirmed” value with J2 of M. incognita (80 μg/300 μL) and in the test with J2 of M. incognita (150 μg/300 μL) was “nematostatic effect” each time.

Turning to `O=C(O)/C=C(\CC(=O)O)C(=O)O` [trans-aconitic acid], the J2 paralyzed in test [1] (80 μg/300 μL) amounted to 90%. The “% paralyzed nematodes” value is less than 11.12% in test [1] (0.125 g/L (of each compound)) and 11.12% in test [1] (0.17 g/L (of each compound)). In addition, in test [1], the “% of paralyzed nematodes” value worked out at 27.08%. In addition, in the test with J2 of M. incognita (150 μg/300 μL), the “nematicidal activity after the recovery assay” value is listed as 98%.

Regarding S-carboxymethylcisteine, the J2 paralyzed result in test [1] (80 μg/300 μL) and in test [1] (150 μg/300 μL) was “about 90%” throughout. In addition, the “% paralyzed nematodes” value in test [1] (0.125 g/L (of each compound)) is listed as less than 43.03%; in test [1] (0.17 g/L (of each compound)), 43.03%. Further, the “kind of effect confirmed” value in the test on J2 of M. incognita (80 μg/300 μL) and in the test on J2 of M. incognita (150 μg/300 μL) was “nematostatic effect” each time.

Values taken from US9750247B2, “Nematotoxic composition of synergistic effect, use of a nematotoxic composition of synergistic effect” (EMPRESA BRASILEIRA DE PESQUISA AGROPECUARIA—EMBRAPA, priority 2012, dated 2017).
